Measurements from US11084783B2, “O-alkyl-benzylideneguanidine derivatives and therapeutic use for the treatment of disorders associated with an accumulation of misfolded proteins” (INFLECTIS BIOSCIENCE, priority 2014, dated 2021).

Tests used:
Type in all cases: cell-based
HeLa cells = assay: Cytoprotection from ER stress (tunicamycin), cell viability by WST-8; parameters: key to Cytoprotection from ER stress compared to guanabenz: +: lower cytoprotective effect compared to Guanabenz; ++: similar cytoprotective effect compared to Guanabenz; +++: higher cytoprotective effect compared to Guanabenz; details: HeLa cells, 6 hour exposure to tunicamycin 5 μg/mL, compounds 0.5-10 μM, viability 48 h or 72 h
Source text: Cytoprotection against ER stress can be measured by a suitable assay. For example, cytoprotection can be measured in HeLa cells in which ER stress is elicited by the addition of media containing tunicamycin, a mixture of homologous nucleoside antibiotics that inhibits the UDP-HexNAc: polyprenol-P HexNAc-1-P family of enzymes and is used to induce unfolded protein response. Cell viability can be detected in the presence and absence of inhibitor compounds after a set period of time, by measuring the reduction of WST-8 into formazan using a standard cell viability kit (such as Cell Viability Counting Kit-8 from Dojindo). Cytoprotection from ER stress is measured in terms of the percentage increase in viable cells (relative to control) after ER stress. Further details of a suitable assay are set forth in the accompanying Examples section.
This assay is described in Tsaytler et al. (Science 2011). HeLa Cells were cultured in Eagle's Minimum Essential Medium (EMEM) supplemented with Glutamine, Sodium Pyruvate, Non-Essential Amino Acids, Penicillin and Streptomycin containing 10% Foetal Bovine Serum (FBS), at 37° C. in 5% CO2 atmosphere. Cells were plated in 96 well plates at a density of 17,000 cells/mL the day before the treatment. ER stress was elicited by addition of 5 μg/mL tunicamycin (Sigma-Aldrich) together with PPP1R15A inhibitors (0.5-10 μM). Media were changed 6h later with fresh media and the cytoprotection was maintained by the addition of PPP1R15A inhibitors (0.5-10 μM). Cell viability was assessed by measuring the reduction of WST-8 into formazan using Cell Counting Kit-8 (Sigma) according to the supplier's recommendation, 48 h or 72h after tunicamycin treatment. Cytoprotection from ER stress is measured in terms of cytoprotective potency effect compared to the reference compound Guanabenz (Tsaytler et al., Science 2011) after ER stress: • ‘+’ no cytoprotective effect; • ‘+’ lower cytoprotective effect compared to Guanabenz; • ‘++’ similar cytoprotective effect compared to Guanabenz; • ‘+++’ higher cytoprotective effect compared to Guanabenz.
Table 1 summarizes the results of cytoprotective effect of different compounds of the invention, compared to guanabenz, after the stress induced by a 6 hour exposure of tunicamycin.

[1] = test system: mouse embryonic fibroblasts lipofected with poly I:C; assay: In vitro inflammation/infection model: poly I:C induced mouse embryonic fibroblasts; details: 25 μM, 6h, IFN-beta ELISA in culture supernatants
Procedure: Mouse Embryonic Fibroblasts (MEFs) were lipofected with poly I:C and treated with […] compounds of the invention (25 μM) for 6h. After 6h of culture, elF2alpha-phosphorylation (elF2a-P) and PPP1R15A (GADD34) expression was monitored by western blotting, while type-1 Interferon(IFN)-beta production was quantified in culture supernatants by ELISA. Control (nt) and poly I:C/DMSO are respectively negative and positive controls. Poly I:C (polyinosinic:polycytidylic acid or polyinosinic-polycytidylic acid sodium salt) is an immunostimulant used to simulate viral infections. Poly I:C which is structurally similar to double-stranded RNA, is known to interact with toll-like receptor 3 which is expressed in the intracellular compartments of B-cells and dendritic cells. Guanabenz (25 μM) was used as reference inhibitory compound.
MEFs were cultured in DMEM, 10% FCS (HyClone, Perbio), 100 units/ml penicillin, 100 μg/ml streptomycin, 2 mM glutamine, 1× MEM non-essential amino acids and 50 μM 2-mercaptoethanol. MEFS were treated for the indicated time with 10 μg/ml poly I:C (InvivoGen) in combination with lipofectamine 2000 (Invitrogen).
Cells were lysed in 1% Triton X-100, 50 mM Hepes, 10 mM NaCl, 2.5 mM MgCl2, 2 mM EDTA, 10% glycerol, supplemented with Complete Mini Protease Inhibitor Cocktail Tablets (Roche). Protein quantification was performed using the BCA Protein Assay (Pierce). 25-50 μg of Triton X-100-soluble material was loaded on 2%-12% gradient or 8% SDS-PAGE before immunoblotting and chemi-luminescence detection (SuperSignal West Pico Chemi-luminescent Substrate, Pierce). Rabbit polyclonal antibodies recognizing GADD34 (C-19) were from Santa Cruz Biotechnology and anti-elF2alpha[pS^52] were from Invitrogen.
IFN-beta quantification in culture supernatant was performed using the Mouse Interferon Beta ELISA kit (PBL Interferon Source) according to manufacturer instructions.
Normal response of MEFs to poly I:C is characterized by PPP1R15A expression, increase in elF2alpha-P (variable in time and related to the levels PPP1R15A expression) mediated by PKR activation and type-I IFN production (range 500 to 700 pg/ml). Knock out PPP1R15A MEFs are unable to produce this cytokine in response to poly I:C.
The potency of compounds of the invention to inhibit PPP1R15A was evaluated by measuring the increase of elF2alpha phosphorylation, the decrease of PPP1R15A expression due to its own pharmacological inhibition resulting in general protein synthesis inhibition and type-I IFN production.

human alpha2A receptor = target: T1, human alpha2A receptor (Homo sapiens, UniProt P08913); assay: Functional GPCR assay for adrenergic α2A receptor (CellKey detection method); details: agonist activity, CHO cells expressing human alpha2A receptor, impedance (CellKey); read-out: Functional adrenergic alpha2 receptor assay EC50
T1 construct: CHO cells endogenously expressing human alpha2A receptor; endogenous in cells; host or cells: CHO cells
T1 sequence (P08913 1-465): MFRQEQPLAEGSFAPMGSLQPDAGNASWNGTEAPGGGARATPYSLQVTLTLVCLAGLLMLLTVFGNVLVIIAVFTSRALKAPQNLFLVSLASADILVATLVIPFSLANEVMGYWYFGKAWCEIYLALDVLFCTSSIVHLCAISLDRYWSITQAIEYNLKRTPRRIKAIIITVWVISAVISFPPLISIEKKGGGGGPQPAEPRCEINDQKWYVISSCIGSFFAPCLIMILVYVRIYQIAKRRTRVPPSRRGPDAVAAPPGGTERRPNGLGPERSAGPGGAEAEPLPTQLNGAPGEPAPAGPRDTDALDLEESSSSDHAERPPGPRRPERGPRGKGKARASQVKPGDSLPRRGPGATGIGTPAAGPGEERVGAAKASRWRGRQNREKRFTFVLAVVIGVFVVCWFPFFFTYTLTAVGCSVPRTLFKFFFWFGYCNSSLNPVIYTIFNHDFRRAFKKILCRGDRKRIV
Procedure: The agonist activity of compounds was evaluated on CHO cells […] expressing human alpha2A receptor and was determined by measuring their effects on impedance modulation using the CellKey detection method. Cells were seeded onto 96-well plate at density of 6×10^4 cells/well in HBSS buffer (Invitrogen)+20 mM HEPES (Invitrogen) with 0.1% BSA and are allowed to equilibrate for 60 min at 28° C. before the start of the experiment. Plates were placed onto the system and measurements were made at a temperature of 28° C. Solutions were added simultaneously to all 96 wells using an integrated fluidics system: HBSS (basal control), reference agonist at 100 nM (stimulated control), reference agonist (EC50 determination) or the test compounds. Impedance measurements are monitored for 10 minutes after ligand addition. The standard reference agonist is epinephrine, which is tested in each experiment at several concentrations to generate a concentration-response curve from which its EC50 value is calculated.
Dose-response data from test compounds were analysed with Hill software using non-linear regression analysis of the concentration-response curves generated with mean replicate values using Hill equation curve fitting.

**Q.** How did the “Cytoprotection from ER stress compared to guanabenz” value (HeLa cells) turn out when `CS(=O)(=O)CCCO/N=C(\N)N/N=C/c1ccccc1Cl` [Compound 4, 2-(2-chlorobenzylidene)-N′-[3-(methylsulfonyl)propoxy]hydrazinecarboximidamide] was run?
**A.** The value was “++”.

**Q.** For `N/C(=N\OCCO)N/N=C/c1ccccc1Cl` [Compound 6, 2-(2-chlorobenzylidene)-N′-(2-hydroxyethoxy)hydrazinecarboximidamide], which “prevention of type-I IFN production (FIG. 9)” value [1] is on record?
**A.** Its value is “prevent type-I IFN production”.

**Q.** What about the “Cytoprotection from ER stress compared to guanabenz” value (HeLa cells) of the same compound?
**A.** The value was “++”.

**Q.** What about the EC50 (human alpha2A receptor) of the same compound?
**A.** Its EC50 is > 33.3 µM.

**Q.** How did the “Cytoprotection from ER stress compared to guanabenz” value (HeLa cells) turn out when `CCOCCONC(=N)N/N=C/c1ccccc1Cl` [Compound 13, 2-(2-chlorobenzylidene)-N-(2-ethoxyethoxy)hydrazinecarboximidamide] was run?
**A.** Its value is “++”.

**Q.** And the EC50 (human alpha2A receptor)?
**A.** Its EC50 is > 33.3 µM.

**Q.** With `CC(C)=CCONC(=N)N/N=C/c1ccccc1Cl` [Compound 14, 2-(2-chlorobenzylidene)-N′-[(3-methylbut-2-en-1-yl)oxy]hydrazinecarboximidamide] as the compound, how does the “Cytoprotection from ER stress compared to guanabenz” value (HeLa cells) read?
**A.** Its value is “++”.

**Q.** With `CCSCCONC(=N)N/N=C/c1ccccc1Cl` [Compound 15, 2-(2-chlorobenzylidene)-N-[2-(ethylsulfanyl)ethoxy]hydrazinecarboximidamide] as the compound, how does the “Cytoprotection from ER stress compared to guanabenz” value (HeLa cells) read?
**A.** The value was “++”.

**Q.** What about the EC50 (human alpha2A receptor) of the same compound?
**A.** The EC50 was > 33.3 µM.

**Q.** `CCCO/N=C(\N)N/N=C/c1c(F)cccc1Cl` [Compound 19, 2-(2-chloro-6-fluorobenzylidene)-N′-propoxyhydrazinecarboximidamide] was tested. Which “Cytoprotection from ER stress compared to guanabenz” value (HeLa cells) did it give?
**A.** The value was “+++”.

**Q.** With `CCCO/N=C(\N)N/N=C/c1c(Cl)cccc1Cl` [Compound 21, 2-(2,6-dichlorobenzylidene)-N-propoxyhydrazinecarboximidamide] as the compound, how does the “Cytoprotection from ER stress compared to guanabenz” value (HeLa cells) read?
**A.** Its value is “++”.

**Q.** With `CCCO/N=C(\N)N/N=C/c1ccncc1Cl` [Compound 23, 2-[(3-chloropyridin-4-yl)methylidene]-N-propoxyhydrazinecarboximidamide] as the compound, how does the “Cytoprotection from ER stress compared to guanabenz” value (HeLa cells) read?
**A.** The value was “++”.
